Laboratory results taken from paper PMC5225183, “Fingerprinting of neurotoxic compounds using a mouse embryonic stem cell dual luminescence reporter assay” (Archives of Toxicology, 2016).
Read-outs that look alike come from different tables or passages of the source.

What was measured:
[1] = cited from earlier work
[2] = design: method as in Australian Therapeutic Goods Administration [2014]; settings: rats, toxic dose level 10 mg/kg/day; ref Australian Therapeutic Goods Administration [2014]; cited from earlier work
[3] = PBPK reverse modeling of nominal equivalent concentration (NEC), human data
Description: To evaluate the human relevance of in vitro concentrations found to be toxic in this study, an in vitro–in vivo comparison of the toxicity data was performed using a physiology-based pharmacokinetic (PBPK) reverse modeling approach. […] The lipid content and albumin concentrations of the test media N2 and BHK medium were calculated on the basis of the available information provided by the suppliers (Fig. S2A). The data on rat plasma have been adopted from (Verwei et al. [2006]). The original references are (Barber et al. [1990]) for albumin and (DeJongh et al. [1997]) for lipids. Human plasma values were taken from (Gulden and Seibert [2003]). The original data on albumin are from (Lindup [1987]) and for lipids from (Patterson et al. [1988]). Total protein concentrations were calculated based on the assumption that the protein molar mass is similar to the one of albumin (66 kDa). Albumin was assumed to represent 60 and 48 % of the total serum proteins (mg/ml) in human and rat (Baker et al. [1979]; Busher [1990]) (Fig. S2A).
(a) Developmental toxicity (DT)—inducing concentrations were extrapolated from the in vivo study reported in the document by the Australian Therapeutic Goods Administration (Australian Therapeutic Goods Administration [2014]). In an embryo-fetal developmental toxicity study in rats, abiraterone acetate induced developmental toxicity when administered at oral doses of 10, 30 or 100 mg/kg/day throughout the period of organogenesis (gestational days 6–17). Findings include embryo-fetal lethality (increased postimplantation loss and decreased number of living fetuses), fetal developmental delay (skeletal effects), and urogenital effects (bilateral ureter dilation) at doses ≥10 mg/kg/day (Australian Therapeutic Goods Administration [2014]). (b) Toxicokinetic parameters of abiraterone in rats were extracted from the available report from the TGA (Australian Therapeutic Goods Administration [2014]). […] The average concentration (Cavg) was calculated from the ratio of AUC and the dose interval (τ) of 24 h. The percentage of plasma protein binding of the drug was reported as being 99.8 %, without relevant species differences occurring (US FDA [2011]). (c) The nominal in vitro concentrations equivalent to the concentration used in vivo were calculated using the value of total protein concentration instead of albumin concentration.
Clinical signs included malrotated forepaws/hindpaws, discoloration of the body surface, impaired coat growth, eye opacity, and eye discharge with absence of pupillary reflex were observed (US FDA [2012]). […] The Cavg was calculated as the ratio of AUC and the dose interval (τ) of 24 h. TF is reported to be extensively bound in plasma, probably mostly to albumin, with an average bound fraction of 99.46 % (Russo et al. [2013]). (c) The nominal in vitro concentrations equivalent to the concentration used in vivo in rats and humans (Cmax and Cavg) were determined assuming only binding to the specific drug-binding proteins (albumin and/or α1-acid glycoprotein) (Fig. S2D).
To compare the effective/toxic concentrations found in our study with relevant in vivo concentrations, we used a reverse pharmacokinetic modeling approach for three exemplary compounds: teriflunomide, geldanamycin, and abiraterone. Firstly, we used a literature data mining approach to identify toxic or clinically relevant plasma concentrations reported in published animal studies (in relation to developmental toxicity or neurotoxicity) or clinical measurements (mostly in relation to drug efficacy). Then those values were used as points-of-departure to calculate the nominal equivalent concentrations (NEC) in both cell culture media used in our study, the BHK and N2 medium. These two media (used to expose the ESCs and the ESC-derived neurons) contained different amounts of protein and lipid and therefore required separate calculations of the NEC. […]

[4] = Toxicokinetics in rats; type: in vivo; settings: plasma, rat
[5] = system: Thy1-GFP transgenic rats; design: method as in Sun et al. [2012]; settings: ref Sun et al. [2012]; cited from earlier work
[6] = cited from earlier work; remark: listed apart in the source
[7] = system: mice; design: method as in https://www.spectrumchemical.com/MSDS/TCI-G0334.pdf; settings: ref https://www.spectrumchemical.com/MSDS/TCI-G0334.pdf; cited from earlier work
[8] = design: method as in Supko et al. [1995]; settings: mouse, i.v.; ref Supko et al. [1995]; cited from earlier work
[9] = system: rats; settings: Sprague Dawley rats, GD 6 through LD 20; ref US FDA [2012]; cited from earlier work
[10] = system: neuroepithelial precursor cell migration; design: method as in Zimmer et al. [2012]; settings: ref Zimmer et al. [2012]; cited from earlier work
[11] = system: neural crest cell migration; design: method as in Zimmer et al. [2012]; settings: ref Zimmer et al. [2012]; cited from earlier work
[12] = system: neuronal precursor cells derived from human embryonic stem cells; design: method as in Waldmann et al. [2014]; settings: ref Waldmann et al. [2014]; cited from earlier work
[13] = Sprague Dawley, oral, rats, 0.3 mg/kg, estimated proportional to reported kinetics at 1 mg/kg (US FDA [2012])

C[C@]12CC[C@H](O)CC1=CC[C@@H]1[C@@H]2CC[C@]2(C)C(c3cccnc3)=CC[C@@H]12 [Abiraterone]
AUC at steady state ([1]; humans, daily oral dose of 1000 mg as abiraterone acetate, ref Goldberg and Berrios-Colon [2013]): 1.173 µg·h/mL | Cmax ([1]; humans, daily oral dose of 1000 mg/kg as abiraterone acetate, ref Goldberg and Berrios-Colon [2013]): 226 ng/mL | AUC [2]: 0.034 µg·h/mL | Cmax [2]: 10.8 ng/mL | Free concentration in vivo ([3]; Cavg): 0.353 pM | Total concentration in vivo (ECpl) ([3]; Cavg): 0.14 µM | Free concentration in vivo ([3]; Cmax): 1.63 pM | Total concentration in vivo (ECpl) ([3]; Cmax): 0.647 µM

COC1=C2C[C@@H](C)C[C@H](OC)[C@H](O)[C@@H](C)/C=C(\C)[C@H](OC(N)=O)[C@@H](OC)/C=C\C=C(/C)C(=O)NC(=CC1=O)C2=O [Geldanamycin]
Cmax ([4]; Thy1-GFP transgenic, dose of 0.2 mg/kg, calculated from mouse volume of distribution): 1250 ng/mL | dose affecting nerve recovery / neurodifferentiation [5]: 0.2 mg/kg/day | aqueous solubility [6]: poor | LD50 [7]: 1 mg/kg | initial volume of distribution [8]: 0.16 L/kg

C/C(O)=C(\C#N)C(=O)Nc1ccc(C(F)(F)F)cc1 [Teriflunomide]
AUC [4, 13]: ~33 µg·h/mL | Cmax [4, 13]: ~3000 ng/mL | 24 h AUC at steady state ([1]; healthy individuals, daily oral dose of 14 mg, ref Australian Therapeutic Goods Administration [2013]): 1070 µg·h/mL | oral dose leading to teratogenicity [9]: 0.3 mg/kg/day | Free concentration in vivo ([3]; Cavg): 280000 pM | Total concentration in vivo (ECpl) ([3]; Cavg): 165 µM

CCCC(CCC)C(=O)O [Valproic acid]
concentration not affecting neuroepithelial precursor cell migration [10]: > 1 mM | concentration inhibiting neural crest cell migration [11]: 10 to 100 µM | range of tolerance [12]: up to 25 μM
